Experimental data taken from patent US4617994A, “Determining residual oil saturation by injecting CO2 and base generating reactant” (priority 1985, dated 1986).
Like-named read-outs stand apart in the source and are kept apart here. Each block holds one compound with its values, some of them ahead of it.

Type: physicochemical
[1] = 206 °F, pH 6.0, 50 psig, 0.5 M/L NaCl, 0.05 mol/liter base generator
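Further: hydrolysis of the base generator in aqueous solution, t1/2 given in hours as the time until half of it has reacted, with pH held steady during the run.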

Excerpt: In each case, the solution was maintained at a pressure of 50 psig during the test. The pH of the solution was maintained substantially constant by adding portions at 0.1 mol/liter sodium bicarbonate solution to the system while the hydrolysis was proceeding. Each base generator solution consisted of water containing 0.5 mol/liter sodium chloride and 0.05 mols/liter of the base generator.
*^1 This is the time, in hours, required for the base generator to be
This is a convenient way to measure the speed of a reaction.

Structure (SMILES): O=N[O-].[Na+] [NaNO2, Sodium Nitrite]
- Half Life, t1/2 (212 °F, pH 6.0, 50 psig, 0.5 M/L NaCl, 0.05 mol/liter base generator): 80.0 h
- Half Life, t1/2 (279 °F, pH 5.5, 50 psig, 0.5 M/L NaCl, 0.05 mol/liter base generator): 17.5 h
- Half Life, t1/2 (279 °F, pH 6.0, 50 psig, 0.5 M/L NaCl, 0.05 mol/liter base generator): 49.2 h
- Half Life, t1/2 (279 °F, pH 7.0, 50 psig, 0.5 M/L NaCl, 0.05 mol/liter base generator): 141.4 h
- Half Life, t1/2 (280 °F, pH 6.5, 50 psig, 0.5 M/L NaCl, 0.05 mol/liter base generator): 84.9 h
- Half Life, t1/2 (296 °F, pH 6.5, 50 psig, 0.5 M/L NaCl, 0.05 mol/liter base generator): 73.2 h

Structure (SMILES): N#CO [KOCN, Potassium Cyanate]
- Half Life, t1/2 (78 °F, pH 6.0, 50 psig, 0.5 M/L NaCl, 0.05 mol/liter base generator): 19.6 h
- Half Life, t1/2 (78 °F, pH 6.5, 50 psig, 0.5 M/L NaCl, 0.05 mol/liter base generator): 68.6 h
- Half Life, t1/2 (78 °F, pH 7.0, 50 psig, 0.5 M/L NaCl, 0.05 mol/liter base generator): 206.4 h
- Half Life, t1/2 (99 °F, pH 7.0, 50 psig, 0.5 M/L NaCl, 0.05 mol/liter base generator): ~ 94.0 hours
- Half Life, t1/2 (99 °F, pH 7.5, 50 psig, 0.5 M/L NaCl, 0.05 mol/liter base generator): ~ 223.0 hours
- Half Life, t1/2 (116 °F, pH 8.0, 50 psig, 0.5 M/L NaCl, 0.05 mol/liter base generator): ~ 223.0 hours

- Half Life, t1/2 (76 °F, pH 6.0, 50 psig, 0.5 M/L NaCl, 0.05 mol/liter base generator): 450.1 h
- Half Life, t1/2 (96 °F, pH 6.0, 50 psig, 0.5 M/L NaCl, 0.05 mol/liter base generator): 53.6 h
- Half Life, t1/2 (109 °F, pH 6.0, 50 psig, 0.5 M/L NaCl, 0.05 mol/liter base generator): 92.0 h
- Half Life, t1/2 (109 °F, pH 7.0, 50 psig, 0.5 M/L NaCl, 0.05 mol/liter base generator): 35.0 h
- Half Life, t1/2 (110 °F, pH 5.5, 50 psig, 0.5 M/L NaCl, 0.05 mol/liter base generator): 439.0 h
- Half Life, t1/2 (110 °F, pH 6.5, 50 psig, 0.5 M/L NaCl, 0.05 mol/liter base generator): 43.8 h
- Half Life, t1/2 (140 °F, pH 6.0, 50 psig, 0.5 M/L NaCl, 0.05 mol/liter base generator): 18.4 h
- Half Life, t1/2 [1]: too fast
Structure (SMILES): O=C1C=CC(=O)N1 [Maleimide]

- Half Life, t1/2 (177 °F, pH 6.0, 50 psig, 0.5 M/L NaCl, 0.05 mol/liter base generator): 184.1 h
- Half Life, t1/2 (177 °F, pH 7.0, 50 psig, 0.5 M/L NaCl, 0.05 mol/liter base generator): 28.4 h
- Half Life, t1/2 [1]: 31.3 h
Structure (SMILES): O=C1CCC(=O)N1 [Succinimide]

Structure (SMILES): CC1CO1 (stereo not shown) [Propylene oxide, Propylene Oxide]
- Half Life, t1/2 (76 °F, pH 7.0, 50 psig, 0.5 M/L NaCl, 0.05 mol/liter base generator): 86.1 h
- Half Life, t1/2 (106 °F, pH 6.0, 50 psig, 0.5 M/L NaCl, 0.05 mol/liter base generator): 26.5 h
- Half Life, t1/2 (122 °F, pH 6.0, 50 psig, 0.5 M/L NaCl, 0.05 mol/liter base generator): 26.0 h
- Half Life, t1/2 (122 °F, pH 7.0, 50 psig, 0.5 M/L NaCl, 0.05 mol/liter base generator): 35.6 h

- Half Life, t1/2 (0.5 m nacl water, pH 5.5): 8.4 h
- Half Life, t1/2 (0.5 m nacl water, pH 6.2): 12.3 h
- Half Life, t1/2 (0.5 m nacl water, pH 7): 45.2 h
- Half Life, t1/2 (0.5 m nacl water, pH 8): 15.9 h
Structure (SMILES): NC(N)=O [Urea]
